Each structure is given as a SMILES string.

The test concerns the target BRD4-BD1 (Homo sapiens (Human), UniProt O60885). In words: BRD4-H4 tetraacetylated peptide inhibition AlphaScreen. It counts as binding. As to conditions: GST-BRD4-BD1 (aa 44-168) with biotinylated Acetyl-Histone H4 (Lys5, 8, 12, 16) peptide. The protocol: Biological Methods BRD4-H4 Tetraacetylated Peptide Inhibition AlphaScreen
Compounds are diluted in serial dilution 1:5 in assay buffer from 10 mM stock in DMSO (100 μM start concentration) in white OptiPlate-384 (PerkinElmer). A mix consisting of 15 nM GST-BRD4-BD1 protein (aa 44-168) or 150 nM GST-BRD4-BD2 (aa 333-460) and 15 nM biotinylated Acetyl-Histone H4 (Lys5, 8, 12, 16) peptide is prepared in assay buffer (50 mM HEPES pH=7.4; 25 mM NaCl; 0.05% Tween 20; 0.1% bovine serum albumin (BSA); 10 mM dithiothreitol (DTT)). 6 μl of the mix is added to the compound dilutions. Subsequently, 6 μl of premixed AlphaLISA Glutathione Acceptor Beads and AlphaScreen Streptavidin Donor Beads from PerkinElmer (in assay buffer at a concentration of 10 μg/ml each) are added and the samples are incubated for 30 min at RT in the dark (shaking 300 rpm). Afterwards, the signal is measured in a PerkinElmer Envision HTS Multilabel Reader using the AlphaScreen protocol from PerkinElmer. Each plate contains negative controls where biotinylated Acetyl-Histone H4 peptide and GST-BRD4-BD1 or GST-BRD4-BD2 are left out and replaced by assay buffer. Negative control values are entered as low basis value when using the software GraphPad Prism for calculations. Furthermore, a positive control (probe molecule JQ1+ with protein/peptide mix) is pipetted. Determination of IC50 values are carried out using GraphPad Prism 3.03 software (or updates thereof).
With `CNc1nc(-c2cn(C)nc2Cc2ccccc2)cn2c(C)nnc12` [Example I-1, 6-(3-benzyl-1-methyl-1H-pyrazol-4-yl)-N,3-dimethyl-[1,2,4]triazolo[4,3-a]pyrazin-8-amine], half-maximal inhibition (IC50) required 61 nM. This counts as double-digit nanomolar. For `CNc1nc(-c2cnn(C)c2Oc2ccccc2)cn2c(C)nnc12` [Example I-2] the value was 41 nM; for `Cc1nc(-c2cnn(C)c2Oc2ccccc2)cn2c(C)nnc12` [Example I-3], 41 nM; for `CNc1nc(-c2nn(C)c(C)c2Cc2ccccc2)cn2c(C)nnc12` [Example I-4], 18 nM. The same measure for `CNc1nc(-c2nc(-c3ccccc3)c(C)n2Cc2ccccc2)cn2c(C)nnc12` [II-1, 6-(1-benzyl-5-methyl-4-phenyl-1H-imidazol-2-yl)-N,3-dimethyl-[1,2,4]triazolo[4,3-a]pyrazin-8-amine]: 4 nM; for `CNc1nc(-c2nc(C)c(C)n2Cc2ccccc2)cn2c(C)nnc12` [II-2]: 15 nM. The same measure for `Cc1nc(-c2cn3c(C)nnc3c(C)n2)n(Cc2ccccc2)c1C` [II-3]: 31 nM.

`Cc1nnc2c(NC3CCN(C)CC3)nc(-c3nc4ccccc4n3Cc3ccccc3)cn12` [III-1, N-[6-(1-benzyl-1H-1,3-benzodiazol-2-yl)-3-methyl-[1,2,4]triazolo[4,3-a]pyrazin-8-yl]-1-methylpiperidin-4-amine] registered an IC50 of 7 nM.

`COCCN1CCC(Nc2nc(-c3nc4ccccc4n3[C@@H](C)c3ccccc3)cn3c(C)nnc23)CC1` [III-2] displayed a 50% inhibitory concentration (IC50) of 41 nM. The molecule `COCCN1CCC(Nc2nc(-c3nc4ccccc4n3[C@H](C)c3ccccc3)cn3c(C)nnc23)CC1` [III-3] registered a half-inhibitory concentration (IC50) of 49 nM. In the case of `COCCN1CCC(Nc2nc(-c3nc4ccccc4n3Cc3ccccc3)cn3c(C)nnc23)CC1` [III-4], the IC50 came out at 8 nM. For `COCCN1CCC(Nc2nc(-c3nc4ccccc4n3Cc3ccc(F)cc3)cn3c(C)nnc23)CC1` [III-5] the value was 9 nM; for `COCCN1CCC(Nc2nc(-c3nc4ccccc4n3Cc3ccc(F)c(F)c3)cn3c(C)nnc23)CC1` [III-6], 9 nM; for `CNc1nc(-c2nc3ccccc3n2Cc2ccccc2)cn2c(C)nnc12` [III-7], 22 nM. For `CNc1nc(-c2nc3cnc(N4CCN(C)CC4)cc3n2Cc2ccccc2)cn2c(C)nnc12` [III-8] the value was 9 nM; for `Cc1nc(-c2nc3cnc(N4CCN(C)CC4)cc3n2Cc2ccccc2)cn2c(C)nnc12` [III-9], 14 nM. For `CNc1nc(-c2nc3cccnc3n2Cc2ccccc2)cn2c(C)nnc12` [III-10] the value was 18 nM. With `CNc1nc(-c2nc3cnc(N4CCN(C)CC4)nc3n2Cc2ccccc2)cn2c(C)nnc12` [III-11], inhibition was half-maximal at 9 nM (IC50). For `COCCN1CCC(Nc2nc(-c3nc4ccc(N5CCOCC5)cc4n3Cc3ccccc3)cn3c(C)nnc23)CC1` [III-12] the value was 7 nM; for `CNc1nc(-c2nc3ccc(N4CCN(C)CC4)cc3n2Cc2ccccc2)cn2c(C)nnc12` [III-13], 9 nM; for `CNc1nc(-c2nc3ccc(N4CCOCC4)cc3n2Cc2ccccc2)cn2c(C)nnc12` [III-14], 10 nM. The same measure for `COCCN1CCC(Nc2nc(-c3nc4cc(C5=NNC(=O)CC5C)ccc4n3Cc3ccccc3)cn3c(C)nnc23)CC1` (stereo not drawn) [III-15]: 3 nM; for `CNc1nc(-c2nc3cc(C4=NNC(=O)CC4C)ccc3n2Cc2ccccc2)cn2c(C)nnc12` (stereo not drawn) [III-16]: 5 nM; for `CCNc1nc(-c2nc3cnc(N4CCN(C)CC4)cc3n2Cc2ccccc2)cn2c(C)nnc12` [III-17]: 17 nM. The same measure for `Cc1nnc2c(NC(C)C)nc(-c3nc4cnc(N5CCN(C)CC5)cc4n3Cc3ccccc3)cn12` [III-18]: 26 nM; for `Cc1nnc2c(NC(C)C)nc(-c3nc4cnc(N5CCOC[C@@H]5C)cc4n3[C@@H](C)c3ccccc3)cn12` [III-19]: 38 nM; for `CNc1nc(-c2nc3cnc(N4CCN(C)CC4)cc3n2Cc2ccccn2)cn2c(C)nnc12` [III-20]: 13 nM. On to `CNc1nc(-c2nc3ccc(N4CCN(C)CC4)cc3n2Cc2ccccn2)cn2c(C)nnc12` [III-21], for which the midpoint of inhibition, the IC50, lay at 8 nM.

Take `CNc1nc(-c2nc3cnc(N4CCOCC4)cc3n2Cc2ccccn2)cn2c(C)nnc12` [III-22]: it took 3 nM to reach half-maximal inhibition (IC50).

Turning to `CNc1nc(-c2nc3ccc(N4CCOCC4)cc3n2Cc2ccccn2)cn2c(C)nnc12` [III-23], the IC50 was 3 nM. For `Cc1nnc2c(N[C@@H]3CCOC3)nc(-c3nc4cnc(N5CCOCC5)cc4n3Cc3ccccn3)cn12` [III-24] the value was 20 nM; for `CNc1nc(-c2nc3cc(C4CCOCC4)ccc3n2Cc2ccccn2)cn2c(C)nnc12` [III-25], 11 nM. For `Cc1nnc2c(NC(C)C)nc(-c3nc4ccc(N5CCOCC5)cc4n3Cc3ccccn3)cn12` [III-26] the value was 5 nM; for `Cc1nnc2c(NC(C)C)nc(-c3nc4cnc(N5CCOCC5)cc4n3Cc3ccccn3)cn12` [III-27], 10 nM; for `Cc1nnc2c(NC(C)C)nc(-c3nc4cnc(N5CCOCC5)cc4n3Cc3ccc(F)cn3)cn12` [III-28], 1 nM. For `Cc1nnc2c(NC(C)C)nc(-c3nc4cnc(N5CCOC[C@H]5C)cc4n3Cc3ccccn3)cn12` [III-29] the value was 9 nM; for `Cc1nnc2c(NC(C)C)nc(-c3nc4cnc(N5CCOC[C@@H]5C)cc4n3Cc3ccccn3)cn12` [III-30], 9 nM. The molecule `Cc1nnc2c(NC(C)C)nc(-c3nc4cnc(N(C)C)cc4n3Cc3ccccn3)cn12` [III-31] yielded a half-inhibitory concentration (IC50) of 13 nM. For `Cc1nnc2c(NC(C)C)nc(-c3nc4ccc(N(C)C)cc4n3Cc3ccccn3)cn12` [III-32] the value was 7 nM; for `Cc1nnc2c(NC(C)C)nc(-c3nc4ccccc4n3Cc3ccccn3)cn12` [III-33], 20 nM; for `COc1ccc2nc(-c3cn4c(C)nnc4c(NC(C)C)n3)n(Cc3ccccn3)c2c1` [III-34], 45 nM. The molecule `Cc1ccc2nc(-c3cn4c(C)nnc4c(NC(C)C)n3)n(Cc3ccccn3)c2c1` [III-35] yielded a half-inhibitory concentration (IC50) of 15 nM. For `Cc1cc2c(cn1)nc(-c1cn3c(C)nnc3c(NC(C)C)n1)n2Cc1ccccn1` [III-36] the value was 28 nM; for `Cc1nnc2c(NC(C)C)nc(-c3nc4cnccc4n3Cc3ccccn3)cn12` [III-37], 14 nM. For `Cc1cccc(Cn2c(-c3cn4c(C)nnc4c(NC(C)C)n3)nc3cnc(N4CCOCC4)cc32)n1` [III-38] the value was 17 nM; for `COc1cc2c(cn1)nc(-c1cn3c(C)nnc3c(NC(C)C)n1)n2Cc1ccccn1` [III-39], 126 nM. For `Cc1nnc2c(NC(C)C)nc(-c3nc4cnc(C(C)C)cc4n3Cc3ccccn3)cn12` [III-40] the value was 18 nM; for `Cc1nnc2c(NC(C)C)nc(-c3nc4cnc(N5CCOC[C@@H]5C)cc4n3[C@@H](C)c3ccccn3)cn12` [III-41], 74 nM.

Consider `Cc1nnc2c(NC(C)C)nc(-c3nc4cnc(C(C)C)cc4n3[C@@H](C)c3ccccn3)cn12` [III-42], for which the 50% inhibitory concentration (IC50) stood at 66 nM. Molecule `Cc1nnc2c(NC(C)C)nc(-c3nc4cnc(C5CCOCC5)cc4n3Cc3ccccn3)cn12` [III-43] registered an IC50 of 34 nM. The same measure for `Cc1nnc2c(NC(C)C)nc(-c3nc4ccc(C5CCOCC5)cc4n3Cc3ccccn3)cn12` [III-44]: 32 nM; for `Cc1nnc2c(NC(C)C)nc(-c3nc4ccc(C5CCOCC5)cc4n3[C@@H](C)c3ccccn3)cn12` [III-45]: 69 nM. For `Cc1nnc2c(NC(C)C)nc(-c3nc4ccc(C(C)C)cc4n3[C@@H](C)c3ccccn3)cn12` [III-46] the value was 243 nM; for `CNc1nc(-c2nc3cnc(N4CCN(C)CC4)cc3n2Cc2cccnc2)cn2c(C)nnc12` [III-47], 12 nM. The same measure for `CNc1nc(-c2nc3ccc(N4CCN(C)CC4)cc3n2Cc2cccnc2)cn2c(C)nnc12` [III-48]: 8 nM; for `CNc1nc(-c2nc3cnc(N4CCOCC4)cc3n2Cc2cccnc2)cn2c(C)nnc12` [III-49]: 4 nM; for `CNc1nc(-c2nc3ccc(N4CCOCC4)cc3n2Cc2cccnc2)cn2c(C)nnc12` [III-50]: 5 nM. Molecule `Cc1nnc2c(N[C@@H]3CCOC3)nc(-c3nc4cnc(N5CCOCC5)cc4n3Cc3cccnc3)cn12` [III-51] displayed an IC50 of 13 nM.

`Cc1cc2c(cn1)nc(-c1cn3c(C)nnc3c(N[C@@H]3CCOC3)n1)n2Cc1cccnc1` [III-52] had a half-maximal inhibitory concentration (IC50) of 31 nM.

As to `CNc1nc(-c2nc3cnc(N4CCN(C)CC4)cc3n2Cc2ccncc2)cn2c(C)nnc12` [III-53], the IC50 was 12 nM.

The values are drawn from US9266891B2, “Substituted [1,2,4]triazolo[4,3-A]pyrazines that are BRD4 inhibitors” (Boehringer Ingelheim International GmbH, priority 2012, dated 2016).
